Experiment: Stability of bulk samples on storage
Assay type: physicochemical
Conditions: three lots prepared by the method of Example 2, stored at 21-28°C in polyethylene containers; over a twelve month period; 525600 min
Description: The vancomycin diphosphate crystal form provided by this invention is a highly crystalline solid when hydrated that is stable over prolonged periods of time. The stability of bulk samples of vancomycin diphosphate was determined by preparing three lots of the compound by the method of Example 2. Samples of the three individual lots were stored at 21-28°C in polyethylene containers. Various physical parameters of each of the three lots were analyzed at zero, six, twelve and eighteen months.

For vancomycin diphosphate, the “initial biological activity retained” value was “more than 90%”.

Reference: patent EP0145484B1, “Vancomycin purification improvement and product” (ELI LILLY AND COMPANY, priority 1983, dated 1985)
